Values of other authors as cited in US20130317107A1, “Platelet-Based Methods to Detect and Monitor Treatment Benefits in Mucosal and Nervous Systems Diseases” (priority 2012, published 2013).

Columns and labels:
[1] = relative to the stable cysteine disulfide
[2] = system: p38 MAP kinase; conditions: human bronchial epithelial cells
[3] = system: dogs; conditions: administered intravenously in dogs
[4] = system: interluekin-1 beta (IL-1β)-induced eotaxin and monocyte chemotactic protein-1 (MCP-1) expression; conditions: by inhibiting activation of p38 MAP kinase
[5] = system: human bronchial epithelial cells
[6] = relative to cysteine
[7] = system: collagen-stimulated platelets

SMILES | solubility compared with cystine [1] | DEP-induced p38 MAP kinase activity [2] | protection against pulmonary oxygen toxicity and ischemic and reperfusion damage [3] | IL-1β-induced eotaxin and MCP-1 expression and production [4] | DEP-induced IL-8 and RANTES production [5] | stability compared with cysteine [6] | CD40L release [7]
CC(=O)N[C@@H](CS)C(=O)O [N-acetylcysteine] | much more soluble | inhibit | protect | inhibit | inhibited | about 10 times | –
CC(=O)Oc1ccccc1C(=O)O [Aspirin] | – | – | – | – | – | – | only partially inhibit
